The text below walks through data of US10335400B2, “Treatment of tauopathies with mGluR5 antagonists” (priority 2014, dated 2019).

In this assay the test system is PP2A. Nature of the assay: PP2A activity (phosphatase ELISA) and PP2Ac protein level in BMAA-treated mouse mixed primary neuronal cultures. The note with it: BMAA 100 μM to 1 mM, 3-48 h. The class given is cell-based. The procedure: Mouse hippocampal neuronal cultures were prepared from d 18 embryos as previously described (1). Briefly, C57BL/6 pregnant female mice from Charles River Laboratories were killed by cervical dislocation. All studies were performed in accordance with the recommendations in the Guide for the Care and Use of Laboratory Animals of the National Institutes of Health (2). The protocol was approved by Institutional Animal Care and Use Committee of the New York Institute for Basic Research in Developmental Disabilities. All surgeries were performed under anesthesia, and all efforts were made to minimize suffering. Embryos were removed and placed in cold Hibernate A (BrainBits, LLC), and all the following steps were performed in ice-cold Hibernate A, under a stereoscopic (dissection) microscope placed in a laminar flow hood. Fetal brains were removed carefully, and forebrains were separated. The hippocampus, including the cortex surrounding the area of the hippocampus, was dissected and cut into small pieces using microsurgical scissors. […]
PP2A activity was assayed with homogenate of rat brain slices using the phosphatase ELISA described previously (5). […] Finally 75 μL of 3,3′,5,5′-Tetramethylbenzidine substrate reagent (Sigma) was added, and the colorimetric development was measured using a microtiter plate reader at a wavelength of 650 nm. […]
On the technique in general: An ELISA detects its analyte on a solid surface through an enzyme-linked reagent.

With `CNC[C@H](N)C(=O)O` [BMAA, β-N-methylamino-L-alanine], the PP2A activity entry was “significantly decreased”.
